The values below come from US8268823B2, “Medical use of triazine derivatives” (University of Greenwich, priority 2006, dated 2012).

Data set [1] has as its target T1, DiHydroFolate Reductase (DHFR) (Rattus norvegicus, UniProt Q920D2).
T1 construct: from tissue; host or cells: rat liver homogenate supernatant (47,500 x g)
T1 sequence (Q920D2 1-187): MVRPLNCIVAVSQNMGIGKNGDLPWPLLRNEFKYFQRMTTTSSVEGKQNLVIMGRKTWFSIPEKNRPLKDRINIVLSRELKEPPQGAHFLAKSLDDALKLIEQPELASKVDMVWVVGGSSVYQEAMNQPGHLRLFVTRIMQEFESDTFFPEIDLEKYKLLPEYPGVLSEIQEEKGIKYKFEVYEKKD
In words: inhibition of binding of [3H]methotrexate to rat liver homogenate supernatant.

Data set [2] addresses T2, hERG potassium channel (Homo sapiens, UniProt Q12809).
For data set [3], the target named is T2, hERG potassium channel. The data set can be described thus: inhibition of binding of [3H]astemizole to cell membranes expressing hERG. (The hERG channel carries a current that helps repolarise heart muscle cells.)
The test system of data set [4] is sodium channel. The data set can be described thus: veratrine-evoked uptake of [14C]guanidine into rat forebrain synaptosomes ([14C]guanidine flux). In kind it is biochemical.
The test system of data set [5] is sodium channel. In kind it is binding, rat.
In data set [6] the target is T2, hERG potassium channel. In words: in vitro.
Setting [7] is: Table 3, rat forebrain synaptosomes, read-out: [14C]guanidine flux Mean (IC50: μM).
[8] abbreviates: Table 4, tissue prep'n Homogenate, read-out: [3H]BTX-B binding Mean (IC50: μM).
The mark [9] stands for this setting: Table 4, tissue prep'n Synaptosomes, read-out: [3H]BTX-B binding Mean (IC50: μM).

Where “and” joins values, the source holds several entries; their conditions need not be identical. Equal values may be shown once. Read-outs that look alike come from different tables or passages of the source.

T2 sequence (Q12809 whole entry): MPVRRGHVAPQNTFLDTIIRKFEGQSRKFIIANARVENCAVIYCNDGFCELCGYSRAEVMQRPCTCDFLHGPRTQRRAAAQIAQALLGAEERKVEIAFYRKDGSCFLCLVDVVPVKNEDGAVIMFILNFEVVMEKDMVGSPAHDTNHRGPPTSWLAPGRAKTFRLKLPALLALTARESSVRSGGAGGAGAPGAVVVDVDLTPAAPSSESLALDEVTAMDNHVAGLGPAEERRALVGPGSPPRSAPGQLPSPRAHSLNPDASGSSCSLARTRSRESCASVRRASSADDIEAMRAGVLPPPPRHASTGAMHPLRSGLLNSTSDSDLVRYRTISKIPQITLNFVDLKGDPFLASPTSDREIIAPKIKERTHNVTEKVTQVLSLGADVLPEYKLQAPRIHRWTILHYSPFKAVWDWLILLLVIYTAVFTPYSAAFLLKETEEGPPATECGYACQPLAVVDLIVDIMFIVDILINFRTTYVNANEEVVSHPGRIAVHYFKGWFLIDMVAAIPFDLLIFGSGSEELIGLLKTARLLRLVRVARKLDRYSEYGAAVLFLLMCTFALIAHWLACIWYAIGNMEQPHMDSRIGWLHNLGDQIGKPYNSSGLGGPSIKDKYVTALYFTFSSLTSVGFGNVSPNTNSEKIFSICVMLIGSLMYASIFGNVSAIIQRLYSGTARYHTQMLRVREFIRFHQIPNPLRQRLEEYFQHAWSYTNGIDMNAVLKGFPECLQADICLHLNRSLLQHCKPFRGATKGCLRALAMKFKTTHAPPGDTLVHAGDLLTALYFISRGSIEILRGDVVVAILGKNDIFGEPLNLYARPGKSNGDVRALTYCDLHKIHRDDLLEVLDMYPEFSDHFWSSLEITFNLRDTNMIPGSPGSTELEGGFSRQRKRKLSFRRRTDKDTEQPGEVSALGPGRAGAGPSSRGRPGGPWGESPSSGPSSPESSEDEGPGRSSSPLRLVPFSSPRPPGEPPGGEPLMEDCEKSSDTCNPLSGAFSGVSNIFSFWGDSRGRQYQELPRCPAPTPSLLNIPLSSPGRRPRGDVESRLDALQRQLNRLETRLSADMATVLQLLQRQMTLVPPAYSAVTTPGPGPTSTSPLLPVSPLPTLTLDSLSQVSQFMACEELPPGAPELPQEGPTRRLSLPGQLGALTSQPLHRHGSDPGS

As a reminder, the IC50 is the concentration needed to halve the response being measured. With `N=c1nc(N)c(-c2cccc(Cl)c2Cl)nn1CCO` [Example 5, 5(3)-Amino-6-(2,3-dichlorophenyl)-2,3(2,5)-dihydro-3(5)-imino-2-(2-hydroxyethyl)-1,2,4-triazine], the “[3H]methotrexate binding Inhibition (% @ assay conc'n)” value in data set [1] (assay concentration 10 μM) was −1%; in data set [1] (assay concentration 101 μM) it was 1%. Further, the IC50 turned out to be 7.2 µM at hERG potassium channel [2]; 172 µM in the data set with sodium channel [4] (setting [7]); 2.1 µM in the data set on sodium channel [4] (Table 5, read-out: [14C]guanidine flux IC50); 7.2 µM with sodium channel [5] (setting [8]); 25.7 µM in the data set with sodium channel [5] (setting [9]); 1.7 µM with sodium channel [5] (Table 5, Synaptosome data, read-out: [3H]BTX-B IC50). Also, the “hERG / [14C]guanidine flux selectivity” value at hERG potassium channel [2] is 3.5. In addition, the “hERG / [3H]BTX-B selectivity” value on hERG potassium channel [3] (ratio of extrapolated hERG IC50 to [3H]BTX-B IC50 (synaptosomes)) is 4.3.
A word on the inhibition: it is the relative decrease from the control value, in per cent. `CC(C)n1nc(-c2cccc(Cl)c2Cl)c(N)nc1=N` [Example 4, 5(3)-Amino-6-(2,3-dichlorophenyl)-2,3(2,5)-dihydro-3(5)-imino-2-isopropyl-1,2,4-triazine]: the inhibition at 10 µM in data set [1] (read-out: [3H]methotrexate binding Inhibition (% @ assay conc'n), assay concentration 10 μM) is -1%; at hERG potassium channel [6] (hERG % inhibition @ 10 μM), 35%. Besides, the inhibition at 99 µM in data set [1] (read-out: [3H]methotrexate binding Inhibition (% @ assay conc'n), assay concentration 99 μM) was determined as 0%. Further, the “hERG / [14C]guanidine flux selectivity” value on hERG potassium channel [2] (human) is given as 6.7. Besides, the IC50 is 18.6 µM and 19.4 µM at hERG potassium channel [3]; 4 µM in the data set with sodium channel [4] (setting [7]); 0.6 µM in the data set on sodium channel [5] (setting [8]); 1.5 µM with sodium channel [5] (setting [9]). Moreover, the selectivity ratio at hERG potassium channel [6] (hERG / [14C]guanidine flux selectivity) came to 6.6.
What is called melting point is the temperature of the solid-liquid transition. `Nc1nnc(-c2cccc(F)c2Cl)c(N)n1` [Example 40, 2-chloro-3-fluorophenyl-1,2,4-triazine-3,5-diamine] gave a melting point of 244 to 246 °C. Moreover, the half-maximal inhibitory concentration (IC50) in data set [1] (rat liver supernatant) came out at 589 µM. Also, the half-inhibitory concentration (IC50) with sodium channel [4] (setting [7]) turned out to be 834 µM. In the data set with sodium channel [5] (setting [9]), the half-maximal inhibitory concentration (IC50) was 283 µM.
